Test system: HCT116 colon cancer cells
Assay: KSP Cellular Assay (percent of cells staining positive for Phos-Histone H3 / Phos-MPM2)
Type: cell-based
Details: Homo sapiens, HCT-116, 16 h, Table 101; HCT116 cells, 16 hours with drug; read-out: ED50 (nM) Range
Protocol: HCT116 colon cancer cells were grown in DMEM:F12 media with 10% heat inactivated FBS at 37 degrees with 5% CO2. Cells were plated at 7,500 cells per well in PDL coated 384-well tissue culture plates. 6 hours later media was removed and new media containing drug was added. Cells were incubated with drug for 16 hours. All further steps were performed at room temperature in the dark. Cells were fixed with 25 ul/well Prefer fixation solution plus 250 nM Hoechst dye and incubated for 30 minutes. The fixation solution was removed and cells were washed with PBS. Cells were then permeabilized with 25 ul/well 0.2% Triton-X in PBS and incubated for 10 minutes. Cells were washed with PBS and then incubated with 25 ul/well PBS containing 3% FBS for 30 minutes. Cells were then stained overnight at 4 degrees with 25 ul/well antibody solution in PBS plus 3% FBS. Antibodies used were Phos-Histone H3 (ser10)-Alexa Flur 488 Conjugate and Phos-MPM2 Texas Red Conjugate. Cells were washed with PBS and then immunofluorescence images captured with HT Pathway microscope. The percent of cells staining positive was calculated and EC50 values for the compounds of the invention that were tested were determined using Excel XLfit.
EC50 Determinations: Dose-response curves were plotted from inhibition data generated each in duplicate, from 8 point serial dilutions of inhibitory compounds. Concentration of compound was plotted against enzyme activity (OD reading). To generate EC50 values, the dose-response curves were then fitted to a standard sigmoidal curve and EC50 values were derived by nonlinear regression analysis.

| Compound | EC50 |
| --- | --- |
| CC(=O)N1C(=O)C2(SC(c3cc(F)ccc3F)=NN2C(C)=O)c2ccccc21 (centres unmarked) [compound 128] | > 1000 nM |
| CC(=O)N1N=C(c2cc(F)ccc2F)SC12C(=O)Nc1ccccc12 (centres unmarked) [compound 127] | > 1000 nM |
| CC(=O)N1N=C(c2cc(F)ccc2F)SC12CC[S+]([O-])c1ccccc12 (centres unmarked) [compound 108] | > 1000 nM |
| CC(=O)N1N=C(c2cc(F)ccc2F)SC12CCc1ccccc12 (centres unmarked) [compound 105] | ≤ 500 nM |
| CC(=O)N1N=C(c2cc(F)ccc2F)SC12CCN(C)c1ccccc12 (centres unmarked) [compound 111] | > 1000 nM |
| CC(=O)N1N=C(c2cc(F)ccc2F)SC12CC(c1ccccc1)Oc1ccccc12 (centres unmarked) [compound 117] | > 1000 nM |
| CC(=O)N1N=C(c2cc(F)ccc2F)SC12CCCc1cccnc12 (centres unmarked) [compound 124] | > 1000 nM |
| CC(=O)N1N=C(c2cc(F)ccc2F)S[C@]12CCc1ccccc12 [compound 119] | 500 to 1000 nM |
| CC(=O)N1N=C(c2cc(F)ccc2F)SC12CCN(C(C)=S)c1ccccc12 (centres unmarked) [compound 114] | > 1000 nM |

Same assay, conditions: Homo sapiens, HCT-116, 16 h, Table 401; HCT116 cells, 16 hours with drug; read-out: ED50 (nM) Range

| Compound | EC50 |
| --- | --- |
| CN(C)CCCC(=O)N1N=C(c2cc(F)ccc2F)SC12CCc1ccccc12 (centres unmarked) [compound 438] | ≤ 500 nM |
| O=C(CCC1CCNCC1)N1N=C(c2cc(F)ccc2F)SC12CCc1ccccc12 (centres unmarked) [compound 462] | ≤ 500 nM |
| N[C@H]1CC[C@H](C(=O)N2N=C(c3cc(F)ccc3F)SC23CCOc2ccccc23)CC1 (some centres unmarked) [compound 480] | > 500 nM |
| N[C@H](C(=O)N1N=C(c2cc(F)ccc2F)SC12CCCc1sccc12)C1CC1 (some centres unmarked) [compound 417] | > 1000 nM |
| O=C(c1ccncc1)N1N=C(c2cc(F)ccc2F)SC12CCOc1ccccc12 (centres unmarked) [compound 474] | > 1000 nM |
| N[C@H](C(=O)N1N=C(c2cc(F)ccc2F)SC12CCSc1ccccc12)C1CC1 (some centres unmarked) [compound 415] | > 1000 nM |
| CC(N)CCC(=O)N1N=C(c2cc(F)ccc2F)SC12CCOc1ccccc12 (centres unmarked) [compound 490] | ≤ 500 nM |
| NCCC(=O)N1N=C(c2cc(F)ccc2F)SC12CCOc1ccccc12 (centres unmarked) [compound 433] | 500 to 1000 nM |
| O=C(CCC1CCCNC1)N1N=C(c2cc(F)ccc2F)SC12CCc1ccccc12 (centres unmarked) [compound 448] | > 1000 nM |
| N[C@H](C(=O)N1N=C(c2cc(F)ccc2F)SC12CCCc1ccsc12)C1CC1 (some centres unmarked) [compound 428] | > 1000 nM |
| COCCOCC(=O)N1N=C(c2cc(F)ccc2F)SC12CCOc1ccccc12 (centres unmarked) [compound 472] | > 1000 nM |
| NCCCC(=O)N1N=C(c2cc(F)ccc2F)SC12CCc1ccccc12 (centres unmarked) [compound 437] | ≤ 500 nM |
| CN1CCC(C(=O)N2N=C(c3cc(F)ccc3F)SC23CCCc2ccsc23)CC1 (centres unmarked) [compound 429] | > 1000 nM |
| O=C1CCCN1CCCC(=O)N1N=C(c2cc(F)ccc2F)SC12CCc1ccccc12 (centres unmarked) [compound 455] | 500 to 1000 nM |
| O=C([C@@H]1CCCCN1)N1N=C(c2cc(F)ccc2F)SC12CCCc1ccccc12 (some centres unmarked) [compound 414] | > 1000 nM |
| NC1CCC(C(=O)N2N=C(c3cc(F)ccc3F)SC23CCc2ccccc23)C1 (centres unmarked) [compound 440] | ≤ 500 nM |
| O=C1CCCN1CCCC(=O)N1N=C(c2cc(F)ccc2F)SC12CCOc1ccccc12 (centres unmarked) [compound 493] | > 500 nM |
| O=C([C@@H]1CCCCN1)N1N=C(c2cc(F)ccc2F)SC12CCSc1ccccc12 (some centres unmarked) [compound 403] | > 1000 nM |
| O=C(CCCN1CCCCC1)N1N=C(c2cc(F)ccc2F)SC12CCOc1ccccc12 (centres unmarked) [compound 494] | ≤ 500 nM |
| O=C(CCCN1CCCCC1)N1N=C(c2cc(F)ccc2F)SC12CCc1ccccc12 (centres unmarked) [compound 456] | ≤ 500 nM |
| O=C(C1CCNCC1)N1N=C(c2cc(F)ccc2F)SC12CCSc1ccccc12 (centres unmarked) [compound 406] | > 1000 nM |
| CN1CCC(C(=O)N2N=C(c3cc(F)ccc3F)SC23CCc2ccccc23)CC1 (centres unmarked) [compound 421] | > 1000 nM |

Same assay, conditions: Homo sapiens, HCT-116, 16 h, Table 601; HCT116 cells, 16 hours with drug; read-out: EC50 (nM) Range

| Compound | EC50 |
| --- | --- |
| CN(C)C(=O)N1N=C(c2cc(F)ccc2F)SC12CCCc1sccc12 (centres unmarked) [compound 603] | > 1000 nM |

Same assay, conditions: Homo sapiens, HCT-116, 16 h, Table 701; HCT116 cells, 16 hours with drug; read-out: EC50 (nM) Range

| Compound | EC50 |
| --- | --- |
| NCCN1N=C(c2cc(F)ccc2F)SC12CCOc1ccccc12 (centres unmarked) [compound 701] | > 1000 nM |

Same assay, conditions: Homo sapiens, HCT-116, 16 h, Table 801; HCT116 cells, 16 hours with drug; read-out: EC50 (nM) Range

| Compound | EC50 |
| --- | --- |
| CC(=O)N1N=C(c2cc(F)ccc2F)S[C@]12c1cc(F)ccc1OC[C@@H]2CCN [compound 802] | > 1000 nM |
| CC(=O)N1N=C(c2cc(F)ccc2F)S[C@@]12c1cc(F)ccc1OC[C@H]2CCN [compound 801] | ≤ 500 nM |
| CC(=O)N1N=C(c2cc(F)ccc2F)S[C@@]12c1ccccc1OC[C@H]2CCN [compound 815] | ≤ 500 nM |
| CC(=O)N1N=C(c2cc(F)ccc2F)S[C@]12c1cc(F)c(F)cc1OC[C@@H]2CCN [compound 808] | > 1000 nM |
| CC(=O)N1N=C(c2cc(F)ccc2F)S[C@@]12c1ccccc1OC[C@H]2CCNO [compound 813] | ≤ 500 nM |

Same assay, conditions: Homo sapiens, HCT-116, 16 h, table of Example 901; HCT116 cells, 16 hours with drug; read-out: EC50 (nM) Range

| Compound | EC50 |
| --- | --- |
| CC(=O)N1N=C(c2cc(F)ccc2F)S[C@]12c1ccccc1C[C@H]2CC#N [compound 906] | ≤ 500 nM |
| CC(=O)N1N=C(c2cc(F)ccc2F)S[C@@]12c1ccccc1OC[C@H]2CC#N [compound 903] | ≤ 500 nM |

Same assay, conditions: Homo sapiens, HCT-116, 16 h, table of Example 1001; HCT116 cells, 16 hours with drug; read-out: EC50 (nM) Range

| Compound | EC50 |
| --- | --- |
| CC(=O)N1N=C(c2cc(F)ccc2F)S[C@]12c1ccccc1OC[C@@H]2CCCO (single isomer, unassigned) [compound 1003] | > 1000 nM |

Same assay, conditions: Homo sapiens, HCT-116, 16 h, table of Example 1801 (headed Table 1201); HCT116 cells, 16 hours with drug; read-out: EC50 (nM) Range

| Compound | EC50 |
| --- | --- |
| CC(=O)N1N=C(c2cc(F)cc(F)c2)S[C@@]12c1ccccc1OC[C@H]2CCN [compound 1815] | ≤ 500 nM |
| CC(=O)N1N=C(c2cccc(C(F)(F)F)c2)S[C@]12c1ccccc1OC[C@@H]2CCN [compound 1817] | > 1000 nM |
| CC(=O)N1N=C(c2cccc(Cl)c2)S[C@@]12c1ccccc1OC[C@H]2CCN [compound 1812] | ≤ 500 nM |
| CC(=O)N1N=C(c2ccccc2F)S[C@@]12c1ccccc1OC[C@H]2CCN [compound 1802] | ≤ 500 nM |
| CC(=O)N1N=C(c2cccc(Cl)c2)S[C@]12c1ccccc1OC[C@@H]2CCN [compound 1813] | > 1000 nM |
| CC(=O)N1N=C(c2cc(C(F)(F)F)ccc2F)S[C@@]12c1ccccc1OC[C@H]2CCN [compound 1806] | ≤ 500 nM |
| CC(=O)N1N=C(c2ccccc2F)S[C@]12c1ccccc1OC[C@@H]2CCN [compound 1804] | > 1000 nM |
| CC(=O)N1N=C(c2ccc(F)cc2F)S[C@@]12c1cc(F)ccc1OC[C@H]2CCN [compound 1819] | ≤ 500 nM |
| CC(=O)N1N=C(c2cc(F)cc(F)c2)S[C@]12c1ccccc1OC[C@@H]2CCN [compound 1818] | > 1000 nM |
| CC(=O)N1N=C(c2cc(C(F)(F)F)ccc2F)S[C@]12c1ccccc1OC[C@@H]2CCN [compound 1807] | > 1000 nM |
| CC(=O)N1N=C(c2ccc(F)c(F)c2)S[C@]12c1cc(F)ccc1OC[C@@H]2CCN [compound 1823] | > 1000 nM |

Same assay, conditions: Homo sapiens, HCT-116, 16 h, table of Example 1901; HCT116 cells, 16 hours with drug; read-out: EC50 (nM) Range

| Compound | EC50 |
| --- | --- |
| COCCOCC(=O)N1N=C(c2cc(F)ccc2F)S[C@]12c1cc(F)ccc1OC[C@@H]2CCN [compound 1905] | > 1000 nM |

Same assay, conditions: Homo sapiens, HCT-116, 16 h, table of Example 2201; HCT116 cells, 16 hours with drug; read-out: EC50 (nM) Range

| Compound | EC50 |
| --- | --- |
| NCC[C@H]1COc2ccccc2[C@]12SC(c1cc(F)ccc1F)=NN2C(=O)N1CCOCC1 [compound 2206] | > 1000 nM |

Same assay, conditions: Homo sapiens, HCT-116, 16 h, table of Example 2501; HCT116 cells, 16 hours with drug; read-out: EC50 (nM) Range

| Compound | EC50 |
| --- | --- |
| CC(=O)N1N=C(c2cc(F)ccc2F)S[C@]12c1ccccc1NC[C@@H]2CCO [compound 2501] | ≤ 500 nM |

Same assay, conditions: Homo sapiens, HCT-116, 16 h, table of Example 2701; HCT116 cells, 16 hours with drug; read-out: EC50 (nM) Range

| Compound | EC50 |
| --- | --- |
| CC(=O)NCC[C@H]1CNc2ccccc2[C@]12SC(c1cc(F)ccc1F)=NN2C(C)=O [compound 2702] | 500 to 1000 nM |

Same assay, conditions: Homo sapiens, HCT-116; read-out: EC50 (nM) Range

| Compound | EC50 |
| --- | --- |
| Fc1ccc(F)c(C2=NN3CCC4CNc5ccccc5C43S2)c1 (centres unmarked) [compound 3101] | > 1000 nM |
| C=CC[C@@H]1CNc2ccccc2[C@]12SC(c1cc(F)ccc1F)=NN2C(C)=O (single isomer, unassigned) [compound 3001] | ≤ 500 nM |

Same assay, conditions: Homo sapiens, HCT-116; table of Example 2001; HCT116 cells, 16 hours with drug; read-out: EC50 (nM) Range

| Compound | EC50 |
| --- | --- |
| NCC[C@H]1COc2ccccc2[C@]12SC(c1cc(F)ccc1F)=NN2C(=O)CF [compound 2001] | ≤ 500 nM |
